Experiment: xn = mol fraction of the nth substance listed
Details: 101 kPa, Liquid; for speed of sound: Sing-around technique in a fixed-path interferometer; for mass density: Vibrating tube method

CC(C)(C)Cl [2-chloro-2-methylpropane] + CCCCCCC
Details | mass density, 283.15 K [kg/m3] | mass density, 298.15 K [kg/m3] | mass density, 313.15 K [kg/m3] | speed of sound, 283.15 K [m/s] | speed of sound, 298.15 K [m/s] | speed of sound, 313.15 K [m/s]
x2 = 0 | 855.249 | 837.096 | 818.536 | 1046.9 | 983.25 | 919.41
x2 = 0.0519 | 843.365 | 825.671 | 807.559 | 1053 | 989.06 | 925.62
x2 = 0.1021 | 832.352 | 815.034 | 797.321 | 1059 | 995.16 | 931.82
x2 = 0.2015 | 811.803 | 795.208 | 778.248 | 1071.6 | 1007.9 | 944.63
x2 = 0.3006 | 792.846 | 776.886 | 760.618 | 1085.1 | 1021.5 | 957.98
x2 = 0.3997 | 775.339 | 759.908 | 744.157 | 1099.1 | 1035.7 | 972.04
x2 = 0.5027 | 758.514 | 743.587 | 728.394 | 1114.5 | 1051.1 | 987.29
x2 = 0.6011 | 743.606 | 729.156 | 714.479 | 1129.7 | 1066 | 1002.2
x2 = 0.7014 | 729.346 | 715.392 | 701.195 | 1145.5 | 1081.5 | 1017.8
x2 = 0.8007 | 716.295 | 702.832 | 689.124 | 1161.5 | 1097.1 | 1033.3
x2 = 0.8966 | 704.437 | 691.409 | 678.136 | 1177.4 | 1113.2 | 1049.5
x2 = 0.9518 | 697.935 | 685.122 | 672.064 | 1187 | 1122.5 | 1058.7

CCC(C)Cl (centres undefined) [2-chlorobutane] + CCCCCC
Details | mass density, 283.15 K [kg/m3] | mass density, 298.15 K [kg/m3] | mass density, 313.15 K [kg/m3] | speed of sound, 283.15 K [m/s] | speed of sound, 298.15 K [m/s] | speed of sound, 313.15 K [m/s]
x2 = 0 | 884.34 | 867.474 | 850.266 | 1127.7 | 1066.2 | 1005.3
x2 = 0.0509 | 870.642 | 853.976 | 836.967 | 1126.4 | 1064.5 | 1003.3
x2 = 0.1002 | 857.772 | 841.229 | 824.438 | 1125.2 | 1063.1 | 1001.6
x2 = 0.1802 | 837.449 | 821.198 | 804.693 | 1124 | 1061.4 | 999.26
x2 = 0.3029 | 807.817 | 791.981 | 775.929 | 1123.1 | 1059.7 | 996.75
x2 = 0.4045 | 784.524 | 769.021 | 753.339 | 1123.4 | 1059.3 | 995.71
x2 = 0.4991 | 763.875 | 748.682 | 733.339 | 1124.5 | 1059.8 | 995.56
x2 = 0.5974 | 743.353 | 728.495 | 713.496 | 1126.5 | 1061.1 | 996.3
x2 = 0.6992 | 723.059 | 708.519 | 693.898 | 1129.5 | 1063.4 | 998
x2 = 0.7996 | 704.031 | 689.807 | 675.523 | 1133.3 | 1066.8 | 1000.8
x2 = 0.8981 | 686.218 | 672.305 | 658.349 | 1138.3 | 1071.1 | 1004.5
x2 = 0.9477 | 677.555 | 663.793 | 650.005 | 1141.4 | 1073.7 | 1006.9
